Measurements as given in PubChem BioAssay AID328 (DTP/NCI, 2004).
Values joined by “and” are separate entries in the source; they are usually repeats but may differ in a detail not shown here. Identical values can stand only once. Inconclusive results and toxic doses are left out.

Test system: BDF1 mice, P388 leukemia ip, median survival T/C
Assay: NCI In Vivo Anticancer Drug Screen. Data for tumor model P388 Leukemia (intraperitoneal) in B6D2F1 (BDF1) mice
Settings: endpoint: median survival time, higher = longer survival
Summary of the method: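 Compound-treated tumour-bearing mice were compared with vehicle-treated controls. Survival was recorded, and the value is the treated-group measurement divided by the control-group measurement (T/C).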

[1] = dose: 50.0 mg/kg/injection, schedule: Q01DX009 (ip), vehicle: saline with Tween-80
[2] = dose: 100.0 mg/kg/injection, schedule: Q01DX009 (ip), vehicle: saline with Tween-80
[3] = dose: 200.0 mg/kg/injection, schedule: Q01DX009 (ip), vehicle: saline with Tween-80
[4] = dose: 50.0 mg/kg/injection, schedule: Q01DX009 (ip), vehicle: Klucel (hydroxypropylcellulose) (HPC)
[5] = dose: 200.0 mg/kg/injection, schedule: Q04DX003 (ip), vehicle: saline with Tween-80
[6] = dose: 400.0 mg/kg/injection, schedule: Q04DX003 (ip), vehicle: saline with Tween-80
[7] = dose: 100.0 mg/kg/injection, schedule: Q04DX003 (ip), vehicle: saline with Tween-80
[8] = dose: 6.25 mg/kg/injection, schedule: Q01DX009 (ip), vehicle: saline with Tween-80
[9] = dose: 25.0 mg/kg/injection, schedule: Q04DX003 (ip), vehicle: saline with Tween-80
[10] = dose: 50.0 mg/kg/injection, schedule: Q04DX003 (ip), vehicle: saline with Tween-80
[11] = dose: 200.0 mg/kg/injection, schedule: Q04DX003 (ip), vehicle: saline
[12] = dose: 400.0 mg/kg/injection, schedule: Q04DX003 (ip), vehicle: saline
[13] = dose: 100.0 mg/kg/injection, schedule: Q04DX003 (ip), vehicle: Klucel (hydroxypropylcellulose) (HPC)
[14] = dose: 200.0 mg/kg/injection, schedule: Q04DX003 (ip), vehicle: Klucel (hydroxypropylcellulose) (HPC)
[15] = dose: 25.0 mg/kg/injection, schedule: Q01DX009 (ip), vehicle: saline
[16] = dose: 100.0 mg/kg/injection, schedule: Q01DX009 (ip), vehicle: saline
[17] = dose: 100.0 mg/kg/injection, schedule: Q04DX003 (ip), vehicle: saline

How did the T/C (dose: 50.0 mg/kg/injection, schedule: Q01DX009 (ip), vehicle: saline + alcohol) turn out when `Fc1ccc(NC(=S)SCc2ccc3c(c2)OCO3)cc1F` was run?
The T/C was 116 % of control.

What about the T/C [1] of the same molecule?
Its T/C is 109 % of control.

And the T/C (dose: 100.0 mg/kg/injection, schedule: Q01DX009 (ip), vehicle: saline + alcohol)?
Its T/C is 116 % of control.

And the T/C [2]?
Its T/C is 116 % of control.

And the T/C [3]?
The T/C was 155 % of control.

How did the T/C [2] turn out when `Cc1cc(N=NC(N)=S)c2ccccc2c1O` was run?
Its T/C is 103 % of control.

And the T/C [3]?
The T/C was 100 % of control.

`CCN(CC)c1nc(N(C)C)nc(N(C)C)n1` was tested. Which T/C [1] did it give?
Its T/C is 105 % of control.

And the T/C [2]?
The T/C was 99 % of control.

What about the T/C [3] of the same molecule?
The T/C was 104 % of control.

What about the T/C (dose: 400.0 mg/kg/injection, schedule: Q01DX009 (ip), vehicle: saline with Tween-80) of the same molecule?
The T/C was 117 % of control.

Which results are given for `CN(C)CC1CCC/C(=C\C=C\c2ccccc2)C1=O` (stereo not drawn)?
T/C (dose: 4.37 mg/kg/injection, schedule: Q01DX009 (ip), vehicle: Klucel (hydroxypropylcellulose) (HPC)): 104 % of control and 113 % of control; T/C (dose: 8.75 mg/kg/injection, schedule: Q01DX009 (ip), vehicle: Klucel (hydroxypropylcellulose) (HPC)): 109 % of control; T/C (dose: 17.5 mg/kg/injection, schedule: Q01DX009 (ip), vehicle: Klucel (hydroxypropylcellulose) (HPC)): 109 % of control and 118 % of control; T/C (dose: 35.0 mg/kg/injection, schedule: Q01DX009 (ip), vehicle: Klucel (hydroxypropylcellulose) (HPC)): 120 % of control; T/C [4]: 120 % of control; T/C (dose: 75.0 mg/kg/injection, schedule: Q01DX009 (ip), vehicle: Klucel (hydroxypropylcellulose) (HPC)): 120 % of control

Which results are given for `COc1ccc(C2=C/C(=C3\C(=O)Oc4ccccc4C3=O)SS2)cc1`?
T/C [1]: 90 % of control; T/C [2]: 92 % of control; T/C [3]: 90 % of control

`Cc1ncc([N+](=O)[O-])n1CCn1nnc2c1CCCC2` was tested. Which T/C [5] did it give?
The T/C was 210 % of control.

What about the T/C [6] of the same molecule?
Its T/C is 114 % of control.

`OC(CC(O)(C(F)(F)F)C(F)(F)F)c1ccccc1` (stereo not drawn) was tested. Which T/C [7] did it give?
Its T/C is 100 % of control.

And the T/C [5]?
Its T/C is 118 % of control.

What about the T/C [6] of the same molecule?
Its T/C is 113 % of control.

For `C=C(C)C(=O)OC1C(C(C)CCCO)=C(CO)CC2OC(=O)C(=C)C21` (stereo not drawn), which T/C (dose: 2.0 mg/kg/injection, schedule: Q01DX009 (ip), vehicle: saline + alcohol) is on record?
Its T/C is 104 % of control.

And the T/C (dose: 4.0 mg/kg/injection, schedule: Q01DX009 (ip), vehicle: saline + alcohol)?
The T/C was 109 % of control.

And the T/C (dose: 8.0 mg/kg/injection, schedule: Q01DX009 (ip), vehicle: saline + alcohol)?
Its T/C is 114 % of control.

What about the T/C (dose: 16.0 mg/kg/injection, schedule: Q01DX009 (ip), vehicle: saline + alcohol) of the same molecule?
The T/C was 109 % of control.

What about the T/C (dose: 32.0 mg/kg/injection, schedule: Q01DX009 (ip), vehicle: saline + alcohol) of the same molecule?
Its T/C is 152 % of control.

What does the source list for `CNC(C)(C)C(SS)c1ccc(Cl)cc1` (stereo not drawn)?
T/C [8]: 110 % of control; T/C (dose: 12.5 mg/kg/injection, schedule: Q01DX009 (ip), vehicle: saline with Tween-80): 118 % of control; T/C (dose: 25.0 mg/kg/injection, schedule: Q01DX009 (ip), vehicle: saline with Tween-80): 105 % of control and 121 % of control; T/C [9]: 101 % of control; T/C [1]: 96 % of control and 110 % of control; T/C [10]: 99 % of control

For `Cn1c(=N)ccn(C2OC(CO)C(O)C2O)c1=O` (stereo not drawn) (tested in a mixture with another compound), which T/C [11] is on record?
Its T/C is 111 % of control.

And the T/C [12]?
The T/C was 165 % of control.

What does the source list for `COB(OC)OC`?
T/C [13]: 91 % of control; T/C [14]: 104 % of control; T/C (dose: 400.0 mg/kg/injection, schedule: Q04DX003 (ip), vehicle: Klucel (hydroxypropylcellulose) (HPC)): 91 % of control

What does the source list for `CCCCCCNP(=O)(N1CC1)N1CC1`?
T/C (dose: 16.5 mg/kg/injection, schedule: Q04DX003 (ip), vehicle: saline with Tween-80): 168 % of control; T/C [9]: 227 % of control; T/C (dose: 37.5 mg/kg/injection, schedule: Q04DX003 (ip), vehicle: saline with Tween-80): 272 % of control

Which T/C (dose: 100.0 mg/kg/injection, schedule: Q01DX001 (ip), vehicle: saline with Tween-80) does the source give for `CC(C)(C)OC(=O)C(C=O)N1C(=O)c2ccccc2C1=O` (stereo not drawn) here?
The T/C was 95 % of control.

What about the T/C (dose: 200.0 mg/kg/injection, schedule: Q01DX001 (ip), vehicle: saline with Tween-80) of the same molecule?
Its T/C is 95 % of control.

What about the T/C (dose: 400.0 mg/kg/injection, schedule: Q01DX001 (ip), vehicle: saline with Tween-80) of the same molecule?
The T/C was 100 % of control.

Which results are given for `NC(=O)NC(=O)/C=C/C(=O)O`?
T/C [9]: 91 % of control; T/C [10]: 100 % of control; T/C [7]: 91 % of control

With `C=CCOP(OCC=C)OCC=C` as the molecule, how does the T/C [15] read?
Its T/C is 90 % of control.

And the T/C (dose: 25.0 mg/kg/injection, schedule: Q04DX003 (ip), vehicle: saline)?
Its T/C is 95 % of control.

And the T/C (dose: 50.0 mg/kg/injection, schedule: Q01DX009 (ip), vehicle: saline)?
Its T/C is 90 % of control.

And the T/C [16]?
Its T/C is 104 % of control.

What about the T/C [17] of the same molecule?
The T/C was 100 % of control.

What does the source list for `CC(C)(C)OP(=O)(OC(C)(C)C)c1ccccc1`?
T/C [1]: 118 % of control; T/C [2]: 98 % of control

Which results are given for `O=C1c2ccccc2C(=O)N1CC(O)COc1ccccc1` (stereo not drawn)?
T/C (dose: 75.0 mg/kg/injection, schedule: Q01DX001 (ip), vehicle: saline sonified): 104 % of control; T/C (dose: 150.0 mg/kg/injection, schedule: Q01DX001 (ip), vehicle: saline sonified): 122 % of control; T/C (dose: 300.0 mg/kg/injection, schedule: Q01DX001 (ip), vehicle: saline sonified): 104 % of control

Which results are given for `CC1(C)N=C(N)N=C(N)N1c1cccc(CCCCc2cccc(S(=O)(=O)F)c2)c1`?
T/C (dose: 1.5 mg/kg/injection, schedule: Q04DX003 (ip), vehicle: saline): 118 % of control; T/C (dose: 4.0 mg/kg/injection, schedule: Q04DX003 (ip), vehicle: saline with Tween-80): 109 % of control; T/C (dose: 6.0 mg/kg/injection, schedule: Q04DX003 (ip), vehicle: saline with Tween-80): 113 % of control; T/C (dose: 6.25 mg/kg/injection, schedule: Q01DX009 (ip), vehicle: saline): 108 % of control; T/C (dose: 9.0 mg/kg/injection, schedule: Q04DX003 (ip), vehicle: saline with Tween-80): 118 % of control; T/C (dose: 12.5 mg/kg/injection, schedule: Q01DX009 (ip), vehicle: saline): 116 % of control; T/C [15]: 116 % of control

Which T/C [13] does the source give for `O=c1[nH]c(SCc2ccc([N+](=O)[O-])cc2)nc2ccccc12` here?
The T/C was 95 % of control.

What about the T/C [14] of the same molecule?
Its T/C is 90 % of control.

What does the source list for `O=C(O)c1cc(I)cc(I)c1`?
T/C [17]: 100 % of control; T/C [11]: 100 % of control; T/C [12]: 160 % of control

`CCN(CC)CCNc1ccc(COC(=O)NC)c2sc3ccccc3c(=O)c12` was tested. Which T/C [8] did it give?
The T/C was 166 % of control.

`CC1(C)O[C@]2(C)CC[C@@H]1C[C@H]2O` was tested. Which T/C (dose: 50.0 mg/kg/injection, schedule: Q01DX005 (ip), vehicle: saline with Tween-80) did it give?
The T/C was 100 % of control.

What about the T/C (dose: 100.0 mg/kg/injection, schedule: Q01DX005 (ip), vehicle: saline with Tween-80) of the same molecule?
The T/C was 98 % of control.

What about the T/C (dose: 200.0 mg/kg/injection, schedule: Q01DX005 (ip), vehicle: saline with Tween-80) of the same molecule?
Its T/C is 95 % of control.

Which T/C (dose: 6.25 mg/kg/injection, schedule: Q01DX009 (ip), vehicle: Klucel (hydroxypropylcellulose) (HPC)) does the source give for `CCOC(=O)C1C2OC(=O)C(C(=O)C2CN(CCCl)CCCl)C1C1CC=C(CC2=CCC(C3C4C(=O)OC(C(CN(CCCl)CCCl)C4=O)C3C(=O)OCC)CC2)CC1` (stereo not drawn) here?
The T/C was 169 % of control.

And the T/C (dose: 12.5 mg/kg/injection, schedule: Q01DX009 (ip), vehicle: Klucel (hydroxypropylcellulose) (HPC))?
Its T/C is 165 % of control (2×) and 178 % of control.

And the T/C (dose: 25.0 mg/kg/injection, schedule: Q01DX009 (ip), vehicle: Klucel (hydroxypropylcellulose) (HPC))?
Its T/C is 176 % of control and 184 % of control and 189 % of control.

And the T/C [4]?
Its T/C is 184 % of control and 208 % of control and 215 % of control.

And the T/C (dose: 100.0 mg/kg/injection, schedule: Q01DX009 (ip), vehicle: Klucel (hydroxypropylcellulose) (HPC))?
The T/C was 265 % of control and 291 % of control and 109 % of control.

For `CO/N=C/c1cccnc1`, which T/C (dose: 50.0 mg/kg/injection, schedule: Q01DX005 (ip), vehicle: saline) is on record?
The T/C was 101 % of control.

And the T/C (dose: 100.0 mg/kg/injection, schedule: Q01DX005 (ip), vehicle: saline)?
Its T/C is 105 % of control.

Which results are given for `O=C(O)CCCl`?
T/C (dose: 50.0 mg/kg/injection, schedule: Q04DX003 (ip), vehicle: saline): 104 % of control; T/C [16]: 91 % of control; T/C [17]: 104 % of control; T/C (dose: 200.0 mg/kg/injection, schedule: Q01DX009 (ip), vehicle: saline): 95 % of control; T/C [11]: 100 % of control
